Several values for one entry are separate records, joined by “and”; a condition that tells them apart may be missing. Identical values can stand only once. Records with an inconclusive call do not appear.
Tested on: BDF1 mice, s.c. Lewis lung carcinoma, T/C %
Test: NCI In Vivo Anticancer Drug Screen. Data for tumor model Lewis Lung Carcinoma (subcutaneous) in B6D2F1 (BDF1) mice
Summary of the method: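 Readout: survival or tumor size, expressed as treated (T) over vehicle control (C). Transplantable tumor implanted in mice; compound given to the treated group.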

[1] = endpoint: mean tumor weight, dose: 50.0 mg/kg/injection, schedule: Q01DX011 (sc), vehicle: steriod suspending solution, higher = larger tumour
[2] = endpoint: mean tumor weight, dose: 100.0 mg/kg/injection, schedule: Q01DX011 (sc), vehicle: steriod suspending solution, higher = larger tumour
[3] = endpoint: median survival time, dose: 1.0 mg/kg/injection, schedule: Q01DX009 (ip), vehicle: saline, higher = longer survival
[4] = endpoint: median survival time, dose: 2.0 mg/kg/injection, schedule: Q01DX009 (ip), vehicle: saline, higher = longer survival

For `CN[C@H]1CCc2cc(OC)c(OC)c(OC)c2-c2ccc(OC)c(=O)cc21`, the T/C (endpoint: mean tumor weight, dose: 0.63 mg/kg/injection, schedule: Q01DX011 (ip), vehicle: saline, higher = larger tumour) was 59 % of control, the T/C (endpoint: mean tumor weight, dose: 1.25 mg/kg/injection, schedule: Q01DX011 (ip), vehicle: saline, higher = larger tumour) was 85 % of control and the T/C (endpoint: mean tumor weight, dose: 2.5 mg/kg/injection, schedule: Q01DX011 (ip), vehicle: saline, higher = larger tumour) was 61 % of control. For the same compound, the T/C (endpoint: mean tumor weight, dose: 5.0 mg/kg/injection, schedule: Q01DX011 (ip), vehicle: saline, higher = larger tumour) was 58 % of control and 72 % of control and the T/C (endpoint: mean tumor weight, dose: 7.0 mg/kg/injection, schedule: Q01DX011 (ip), vehicle: saline, higher = larger tumour) was 33 % of control.

In the case of `CC(C)CCC[C@@H](C)[C@H]1CC[C@H]2[C@@H]3CC=C4C[C@@H](OC(=O)Cc5ccc(N(CCCl)CCCl)cc5)CC[C@]4(C)[C@H]3CC[C@]12C`, the T/C [1] is reported as 84 % of control, the T/C [2] is reported as 76 % of control and the T/C (endpoint: mean tumor weight, dose: 200.0 mg/kg/injection, schedule: Q01DX011 (sc), vehicle: steriod suspending solution, higher = larger tumour) is reported as 78 % of control. The T/C (endpoint: mean tumor weight, dose: 400.0 mg/kg/injection, schedule: Q01DX011 (sc), vehicle: steriod suspending solution, higher = larger tumour) was 57 % of control.

For `O=C(O)CCC(=O)Nc1nccs1`, the T/C (endpoint: mean tumor weight, dose: 50.0 mg/kg/injection, schedule: Q01DX011 (ip), vehicle: carboxymethylcellulose (CMC), higher = larger tumour) was 77 % of control, the T/C (endpoint: mean tumor weight, dose: 100.0 mg/kg/injection, schedule: Q01DX011 (ip), vehicle: carboxymethylcellulose (CMC), higher = larger tumour) was 83 % of control and the T/C (endpoint: mean tumor weight, dose: 200.0 mg/kg/injection, schedule: Q01DX011 (ip), vehicle: carboxymethylcellulose (CMC), higher = larger tumour) was 68 % of control. For the same compound, the T/C (endpoint: mean tumor weight, dose: 400.0 mg/kg/injection, schedule: Q01DX011 (ip), vehicle: carboxymethylcellulose (CMC), higher = larger tumour) was 101 % of control.

`CCC(=O)O[C@H]1CC[C@H]2[C@@H]3CCC4=CC(=O)CC[C@]4(C)[C@H]3CC[C@]12C` was tested, and the T/C (endpoint: mean tumor weight, dose: 125.0 mg/kg/injection, schedule: Q01DX011 (ip), vehicle: steriod suspending solution, higher = larger tumour) was 86 % of control, the T/C (endpoint: mean tumor weight, dose: 250.0 mg/kg/injection, schedule: Q01DX011 (ip), vehicle: steriod suspending solution, higher = larger tumour) was 70 % of control and the T/C (endpoint: mean tumor weight, dose: 500.0 mg/kg/injection, schedule: Q01DX011 (ip), vehicle: steriod suspending solution, higher = larger tumour) was 84 % of control. The T/C (endpoint: median survival time, dose: 40.0 mg/kg/injection, schedule: Q02DX009 (ip), vehicle: Klucel (hydroxypropylcellulose) (HPC), higher = longer survival) was 90 % of control, the T/C (endpoint: median survival time, dose: 80.0 mg/kg/injection, schedule: Q02DX009 (ip), vehicle: Klucel (hydroxypropylcellulose) (HPC), higher = longer survival) was 97 % of control and the T/C (endpoint: median survival time, dose: 160.0 mg/kg/injection, schedule: Q02DX009 (ip), vehicle: Klucel (hydroxypropylcellulose) (HPC), higher = longer survival) was 103 % of control. For the same compound, the T/C (endpoint: median survival time, dose: 320.0 mg/kg/injection, schedule: Q02DX009 (ip), vehicle: Klucel (hydroxypropylcellulose) (HPC), higher = longer survival) was 90 % of control.

With `CCCCCCCCCCCCCCCC(=O)OCC1OC(n2ccc(N)nc2=O)C(O)C1O` (centres undefined) the T/C (endpoint: median tumor weight (est.), dose: 12.0 mg/kg/injection, schedule: Q01DX015 (ip), vehicle: saline with Tween-80, higher = larger tumour) was 54 % of control, the T/C (endpoint: median tumor weight (est.), dose: 18.0 mg/kg/injection, schedule: Q01DX015 (ip), vehicle: saline with Tween-80, higher = larger tumour) was 66 % of control and the T/C (endpoint: median tumor weight (est.), dose: 27.0 mg/kg/injection, schedule: Q01DX015 (ip), vehicle: saline with Tween-80, higher = larger tumour) was 59 % of control.

`CC1CN1c1nc(N2CC2C)nc(N2CC2C)n1` (centres undefined) was tested, and the T/C [3] was 106 % of control, the T/C [4] was 86 % of control and the T/C (endpoint: median survival time, dose: 4.0 mg/kg/injection, schedule: Q01DX009 (ip), vehicle: saline, higher = longer survival) was 105 % of control. The T/C (endpoint: median survival time, dose: 8.0 mg/kg/injection, schedule: Q01DX009 (ip), vehicle: saline, higher = longer survival) was 105 % of control.

In the case of `COc1ccc(-c2cc(=O)c3c(OC)c(OC)c(OC)c(OC)c3o2)c(OC)c1`, the T/C (endpoint: mean tumor weight, dose: 12.5 mg/kg/injection, schedule: Q01DX011 (sc), vehicle: steriod suspending solution, higher = larger tumour) is reported as 72 % of control, the T/C (endpoint: mean tumor weight, dose: 25.0 mg/kg/injection, schedule: Q01DX011 (sc), vehicle: steriod suspending solution, higher = larger tumour) is reported as 88 % of control and the T/C [1] is reported as 87 % of control. For the same compound, the T/C [2] was 86 % of control.

For `CC[C@](O)(C(=O)O)c1cc2n(c(=O)c1CO)Cc1cc3ccccc3nc1-2`, the T/C [3] was 117 % of control and the T/C [4] was 92 % of control.

With `COc1cc2c(cc1OC)-c1ccc3cc4c(cc3c1N(C)C2)OCO4` the T/C (endpoint: median survival time, dose: 5.0 mg/kg/injection, schedule: Q01DX009 (ip), vehicle: water, higher = longer survival) was 89 % of control, the T/C (endpoint: median survival time, dose: 20.0 mg/kg/injection, schedule: Q01DX009 (ip), vehicle: water, higher = longer survival) was 105 % of control and the T/C (endpoint: median survival time, dose: 40.0 mg/kg/injection, schedule: Q01DX009 (ip), vehicle: water, higher = longer survival) was 89 % of control. The T/C (endpoint: median survival time, dose: 80.0 mg/kg/injection, schedule: Q01DX009 (ip), vehicle: water, higher = longer survival) was 98 % of control.

For `N/N=C(\N)c1nn(C2OC(CO)C(O)C2O)c2ncnc(N)c12` (centres undefined), the T/C (endpoint: median survival time, dose: 40.0 mg/kg/injection, schedule: Q01DX005 (ip), vehicle: saline, higher = longer survival) was 124 % of control and the T/C (endpoint: median survival time, dose: 80.0 mg/kg/injection, schedule: Q01DX005 (ip), vehicle: saline, higher = longer survival) was 104 % of control.
